How the values were obtained:
rat TAAR1 = biological target: T1, rat TAAR1 (Rattus norvegicus, UniProt Q923Y9); experiment: Radioligand binding assay on rat TAAR1; settings: for Ki: rat TAAR1, HEK-293 membranes, second value of cell mouse/rat
T1 construct: expressed in transfected cells; membrane preparation
Method: (§1) For the construction of expression plasmids the coding sequences of human, rat and mouse TAAR 1 were amplified from genomic DNA essentially as described by Lindemann et al.. The Expand High Fidelity PCR System (Roche Diagnostics) was used with 1.5 mM Mg^2+ and purified PCR products were cloned into pCR2.1-TOPO cloning vector (Invitrogen) following the instructions of the manufacturer. PCR products were subcloned into the pIRESneo2 vector (BD Clontech, Palo Alto, Calif.), and expression vectors were sequence verified before introduction in cell lines.
(§2) HEK293 cells (ATCC # CRL-1573) were cultured essentially as described by Lindemann et al. (2005). For the generation of stably transfected cell lines HEK293 cells were transfected with the pIRESneo2 expression plasmids containing the TAAR coding sequences (described above) with Lipofectamine 2000 (Invitrogen) according to the instructions of the manufacturer, and 24 hrs post transfection the culture medium was supplemented with 1 mg/ml G418 (Sigma, Buchs, Switzerland). After a culture period of about 10 d clones were isolated, expanded and tested for responsiveness to trace amines (all compounds purchased from Sigma) with the cAMP Biotrak Enzyme immunoassay (EIA) System (Amersham) following the non-acetylation EIA procedure provided by the manufacturer.
Radioligand Binding Assay on Rat TAAR1
(§3) Membrane Preparation and Radioligand Binding.
HEK-293 cells stably expressing rat TAAR1 were maintained at 37° C. and 5% CO2 in DMEM high glucose medium, containing fetal calf serum (10%, heat inactivated for 30 min at 56° C.), penicillin/streptomycin (1%), and 375 μg/ml geneticin (Gibco). Cells were released from culture flasks using trypsin/EDTA, harvested, washed twice with ice-cold PBS (without Ca^2+ and Mg^2+), pelleted at 1,000 rpm for 5 min at 4° C., frozen and stored at −80° C. Frozen pellets were suspended in 20 ml HEPES-NaOH (20 mM, pH 7.4) containing 10 mM EDTA and homogenized with a Polytron (PT 6000, Kinematica) at 14,000 rpm for 20 s. The homogenate was centrifuged at 48,000×g for 30 min at 4° C. Subsequently, the supernatant was removed and discarded, and the pellet resuspended in 20 ml HEPES-NaOH (20 mM, pH 7.4) containing 0.1 mM EDTA using the Polytron (20 s at 14,000 rpm). This procedure was repeated and the final pellet resuspended in HEPES-NaOH containing 0.1 mM EDTA and homogenized using the Polytron. Typically, aliquots of 2 ml membrane portions were stored at −80° C. With each new membrane batch the dissociation constant (Kd) was determined via a saturation curve. […] Nonspecific binding was defined as the amount of ^3[H]—(S)-4-[(ethyl-phenyl-amino)-methyl]-4,5-dihydro-oxazol-2-ylamine bound in the presence of 10 μM unlabeled ligand. All compounds were tested at a broad range of concentrations (10 pM to 10 μM) in duplicates. The test compounds (20 μl/well) were transferred into a 96 deep well plate (TreffLab), and 180 μl of HEPES-NaOH (20 mM, pH 7.4) containing MgCl2 (10 mM) and CaCl2 (2 mM) (binding buffer), 300 μl of the radioligand ^3[H]—(S)-4-[(ethyl-phenyl-amino)-methyl]-4,5-dihydro-oxazol-2-ylamine at a concentration of 3.3×Kd in nM and 500 μl of the membranes (resuspended at 50 μg protein per ml) added. The 96 deep well plates were incubated for 1 hr at 4° C. Incubations were terminated by rapid filtration through Unifilter-96 plates (Packard Instrument Company) and glass filters GF/C (Perkin Elmer) presoaked for 1 hr in polyethylenimine (0.3%) and washed 3 times with 1 ml of cold binding buffer. After addition of 45 μl of Microscint 40 (PerkinElmer) the Unifilter-96 plate was sealed and after 1 hr the […] counted using a TopCount Microplate Scintillation Counter (Packard Instrument Company).

mouse TAAR1 = biological target: T2, mouse TAAR1 (Mus musculus, UniProt Q923Y8); experiment: Radioligand binding assay on mouse TAAR1; settings: for Ki: mouse TAAR1, HEK-293 membranes, first value of cell mouse/rat
T2 construct: expressed in transfected cells; membrane preparation
T2 sequence (Q923Y8 whole entry): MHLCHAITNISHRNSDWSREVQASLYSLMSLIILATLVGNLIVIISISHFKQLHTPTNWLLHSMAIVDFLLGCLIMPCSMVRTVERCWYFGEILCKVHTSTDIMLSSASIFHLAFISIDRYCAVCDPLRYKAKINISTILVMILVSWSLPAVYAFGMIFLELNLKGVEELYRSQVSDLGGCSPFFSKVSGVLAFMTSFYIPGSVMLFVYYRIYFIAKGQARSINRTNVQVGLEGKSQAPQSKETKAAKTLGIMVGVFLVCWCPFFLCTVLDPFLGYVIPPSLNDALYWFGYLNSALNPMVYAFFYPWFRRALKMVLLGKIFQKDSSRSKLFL
Method: as §1, §2
Radioligand Binding Assay on Mouse TAAR1
as §3
HEK-293 cells stably expressing mouse TAAR1 were maintained at 37° C. and 5% CO2 in DMEM high glucose medium, containing fetal calf serum (10%, heat inactivated for 30 min at 56° C.), penicillin/streptomycin (1%), and 375 μg/ml geneticin (Gibco). Cells were released from culture flasks using trypsin/EDTA, harvested, washed twice with ice-cold PBS (without Ca^2+ and Mg^2+), pelleted at 1,000 rpm for 5 min at 4° C., frozen and stored at −80° C. Frozen pellets were suspended in 20 ml HEPES-NaOH (20 mM, pH 7.4) containing 10 mM EDTA and homogenized with a Polytron (PT 6000, Kinematica) at 14,000 rpm for 20 s. The homogenate was centrifuged at 48,000×g for 30 min at 4° C. Subsequently, the supernatant was removed and discarded, and the pellet resuspended in 20 ml HEPES-NaOH (20 mM, pH 7.4) containing 0.1 mM EDTA using the Polytron (20 s at 14,000 rpm). This procedure was repeated and the final pellet resuspended in HEPES-NaOH containing 0.1 mM EDTA and homogenized using the Polytron. Typically, aliquots of 2 ml membrane portions were stored at −80° C. With each new membrane batch the dissociation constant (Kd) was determined via a saturation curve. The TAAR1 radioligand ^3[H]—(S)-4-[(ethyl-phenyl-amino)-methyl]-4,5-dihydro-oxazol-2-ylamine (described in WO 2008/098857) was used at a concentration equal to the calculated Kd value, that was usually around 0.7 nM, resulting in the binding of approximately 0.5% of the radioligand and a specific binding representing approximately 70% of the total binding. Nonspecific binding was defined as the amount of ^3[H]—(S)-4-[(ethyl-phenyl-amino)-methyl]-4,5-dihydro-oxazol-2-ylamine bound in the presence of 10 μM unlabeled ligand. All compounds were tested at a broad range of concentrations (10 pM to 10 μM) in duplicates. The test compounds (20 μl/well) were transferred into a 96 deep well plate (TreffLab), and 180 μl of HEPES-NaOH (20 mM, pH 7.4) containing MgCl2 (10 mM) and CaCl2 (2 mM) (binding buffer), 300 μl of the radioligand ^3[H]—(S)-4-[(ethyl-phenyl-amino)-methyl]-4,5-dihydro-oxazol-2-ylamine at a concentration of 3.3×Kd in nM and 500 μl of the membranes (resuspended at 60 μg protein per ml) added. The 96 deep well plates were incubated for 1 hr at 4° C. Incubations were terminated by rapid filtration through Unifilter-96 plates (Packard Instrument Company) and glass filters GF/C (Perkin Elmer) presoaked for 1 hr in polyethylenimine (0.3%) and washed 3 times with 1 ml of cold binding buffer. […]

T1 sequence (Q923Y9 whole entry): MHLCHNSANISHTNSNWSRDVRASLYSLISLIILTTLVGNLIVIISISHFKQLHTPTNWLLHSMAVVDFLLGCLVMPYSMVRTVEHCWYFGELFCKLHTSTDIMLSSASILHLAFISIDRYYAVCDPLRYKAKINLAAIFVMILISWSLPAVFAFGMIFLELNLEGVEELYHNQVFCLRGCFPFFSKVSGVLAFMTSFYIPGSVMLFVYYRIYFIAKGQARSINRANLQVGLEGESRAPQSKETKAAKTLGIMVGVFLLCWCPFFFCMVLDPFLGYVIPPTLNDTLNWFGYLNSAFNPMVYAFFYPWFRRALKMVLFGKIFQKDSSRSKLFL

Row | Ki (rat TAAR1) [µM] | Ki (mouse TAAR1) [µM] | Kd (rat TAAR1; rat TAAR1 membranes, saturation curve, usual value, read-out: dissociation constant (Kd) of the radioligand) [nM] | Kd (mouse TAAR1; mouse TAAR1 membranes, saturation curve, usual value, read-out: dissociation constant (Kd) of the radioligand) [nM] | SMILES
1 | 0.0849 | 0.0181 | – | – | CC(C)c1cncc(C(=O)Nc2ccc([C@H]3CNCCO3)c(F)c2)n1 [Example 21, 6-Isopropyl-pyrazine-2-carboxylic acid ((S)-3-fluoro-4-morpholin-2-yl-phenyl)-amide]
2 | 0.391 | 0.0522 | – | – | CC(C)c1cncc(C(=O)Nc2ccc([C@H]3CNCCO3)cc2F)n1 [Example 22, 6-Isopropyl-pyrazine-2-carboxylic acid ((S)-2-fluoro-4-morpholin-2-yl-phenyl)-amide]
3 | 0.0881 | 0.0046 | – | – | O=C(Nc1ccc([C@H]2CNCCO2)cc1F)c1cnc(OCC(F)(F)F)cn1 [Example 23, (S)—N-(2-Fluoro-4-(morpholin-2-yl)phenyl)-5-(2,2,2-trifluoroethoxy)pyrazine-2-carboxamide]
4 | 0.0202 | 0.0042 | – | – | O=C(Nc1ccc([C@H]2CNCCO2)c(F)c1)c1cnc(OCC(F)(F)F)cn1 [Example 24, (S)—N-(3-Fluoro-4-(morpholin-2-yl)phenyl)-5-(2,2,2-trifluoroethoxy)pyrazine-2-carboxamide]
5 | 0.0122 | 0.044 | – | – | O=C(Nc1ccc([C@H]2CNCCO2)cc1F)c1cncc(OCC(F)(F)F)n1 [Example 25, (S)—N-(2-Fluoro-4-(morpholin-2-yl)phenyl)-6-(2,2,2-trifluoroethoxy)pyrazine-2-carboxamide]
6 | 0.0032 | 0.0167 | – | – | O=C(Nc1ccc([C@H]2CNCCO2)c(F)c1)c1cncc(OCC(F)(F)F)n1 [Example 26, (S)—N-(3-Fluoro-4-(morpholin-2-yl)phenyl)-6-(2,2,2-trifluoroethoxy)pyrazine-2-carboxamide]
7 | 0.0183 | 0.0059 | – | – | O=C(Nc1ccc([C@@H]2CNCCO2)cc1F)c1cnc(OCC(F)(F)F)cn1 [Example 27, (R)—N-(2-Fluoro-4-(morpholin-2-yl)phenyl)-5-(2,2,2-trifluoroethoxy)pyrazine-2-carboxamide]
8 | 0.0037 | 0.0053 | – | – | O=C(Nc1ccc([C@@H]2CNCCO2)c(F)c1)c1cnc(OCC(F)(F)F)cn1 [Example 28, (R)—N-(3-Fluoro-4-(morpholin-2-yl)phenyl)-5-(2,2,2-trifluoroethoxy)pyrazine-2-carboxamide]
9 | 0.0053 | 0.0447 | – | – | O=C(Nc1ccc([C@@H]2CNCCO2)cc1F)c1cncc(OCC(F)(F)F)n1 [Example 29, (R)—N-(2-Fluoro-4-(morpholin-2-yl)phenyl)-6-(2,2,2-trifluoroethoxy)pyrazine-2-carboxamide]
10 | 0.0035 | 0.0292 | – | – | O=C(Nc1ccc([C@@H]2CNCCO2)c(F)c1)c1cncc(OCC(F)(F)F)n1 [Example 30, (R)—N-(3-Fluoro-4-(morpholin-2-yl)phenyl)-6-(2,2,2-trifluoroethoxy)pyrazine-2-carboxamide]
11 | – | – | ~2.3 | ~0.7 | CCN(C[C@H]1COC(N)=N1)c1ccccc1 [^3[H]—(S)-4-[(ethyl-phenyl-amino)-methyl]-4,5-dihydro-oxazol-2-ylamine, reference compound]

— US20160272626A1, “PYRAZINE DERIVATIVES” (HOFFMANN-LA ROCHE INC., priority 2012, published 2016)
